The values below come from PubChem BioAssay AID1996.

SMILES strings stand for the structures. Converted amounts (≈) assume the structure as drawn.

The conditions of the data set: buffer; pH 7.4; 200.0 µM.
Take `CN1CCC(N(C)CC(O)c2ccccc2)CC1.O=C(O)C(=O)O` (stereo not drawn): the solubility (kinetic) is more than 50.8 µg/mL.

In turn, `COc1cc(C(=O)N=c2sccn2C)c([N+](=O)[O-])cc1OC` yielded a solubility (kinetic) of 47.2 µg/mL (≈ 146 µM).

In turn, `COCCN(CCOc1cc(C)cc(C)c1)Cc1ccc(Cl)cc1` came in with a solubility (kinetic) of 5.6 µg/mL (≈ 16.1 µM).

Take `Cc1ccccc1OCC(=O)OCC(=O)N1CCc2ccccc21`: the solubility (kinetic) came out at 1.8 µg/mL (≈ 5.53 µM).

Molecule `CCCC(CCC)C(=O)OC1C[C@H]2CC[C@@H](C1)[N+]2(C)C.[Br-]` (stereo partly drawn) yielded a kinetic solubility of more than 54.4 µg/mL.

`COc1ccc(N2C(=O)NC(=O)/C(=C\c3ccccc3[N+](=O)[O-])C2=O)cc1` came in with a solubility (kinetic) of 54.4 µg/mL (≈ 148 µM).

`Cc1ccc(CNC(=O)CSc2ccsc2[N+](=O)[O-])cc1` had a kinetic solubility of 5.3 µg/mL (≈ 16.4 µM).

With `Cc1nc2c(C)[n+](CC(=O)c3ccccc3)ccc2n1C.[Br-]`, the solubility (kinetic) was more than 54 µg/mL.

`O=C1CC(C(=O)N2CCN(c3ccccc3)CC2)CN1Cc1ccccc1` (stereo not drawn) showed a solubility (kinetic) of more than 54.5 µg/mL.

`Nc1cnn(C2OC(CO)C(O)C2O)c(=O)n1` (stereo not drawn): the kinetic solubility was more than 36.6 µg/mL.

Turning to `CC1CCN(S(=O)(=O)c2ccc3c(c2)oc(=O)n3C)CC1`, the kinetic solubility was 3 µg/mL (≈ 9.67 µM).

For the molecule `CN1CCN(c2ncnc3scc(-c4ccccc4Cl)c23)CC1`, the kinetic solubility is more than 51.7 µg/mL.

In the case of `CCN1C/C(=N\S(=O)(=O)/N=C2\CN(CC)C(=O)N2CC)N(CC)C1=O`, the solubility (kinetic) was more than 55.9 µg/mL.

For the molecule `COc1ccc(CNC(=O)C2CC(=O)N(C3CCCC3)C2)cc1` (stereo not drawn), the solubility (kinetic) is more than 47.5 µg/mL.

For `Cc1ccccc1S(=O)(=O)NCC1CCCO1` (stereo not drawn), the kinetic solubility amounted to 27.1 µg/mL (≈ 106 µM).

As for `CC(C)N1CC(C(=O)Nc2ccc(Cl)c(Cl)c2)CC1=O` (stereo not drawn), the solubility (kinetic) was more than 47.3 µg/mL.

The molecule `CC1CC(CC(=O)NNc2nc(-c3ccccc3)cs2)C(=O)O1` (stereo not drawn) gave a solubility (kinetic) of more than 49.7 µg/mL.

`COc1ccc(C(=O)NCCCNC(=O)c2cc3ccccc3[nH]2)cc1OC` returned a solubility (kinetic) of more than 57.2 µg/mL.

In the case of `CCn1c(=O)cc(C(F)(F)F)[nH]c1=S`, the kinetic solubility is more than 33.6 µg/mL.

Regarding `COc1ccc(-n2c(C)cc(/C=C3\SC(=O)NC3=O)c2C)cc1`, the solubility (kinetic) worked out at 3.9 µg/mL (≈ 11.9 µM).

As to `CCOCCn1c(N2CCCC2)nc2c1c(=O)n(C)c(=O)n2C`, the kinetic solubility was more than 48.2 µg/mL.

On to `O=[N+]([O-])c1ccc2nonc2c1Nc1cccc(F)c1`, for which the solubility (kinetic) is 1 µg/mL (≈ 3.65 µM).

`Cc1cc2oc(=O)cc(Cn3ccnc3)c2cc1Cl`: the kinetic solubility was 34.3 µg/mL (≈ 125 µM).

The molecule `CCOC(=O)C1=C(COC(=O)[C@@H](NC(=O)c2cccc(C)c2)C(C)C)NC(=O)NC1C` (stereo partly drawn) registered a solubility (kinetic) of more than 64.7 µg/mL.

Molecule `Cc1ccccc1-c1nnc(CS(=O)(=O)c2ccccc2)o1` returned a solubility (kinetic) of more than 47.2 µg/mL.

Molecule `COc1cc(CN2CC=C(c3ccc(F)cc3)CC2)cc(OC)c1` returned a kinetic solubility of 10.4 µg/mL (≈ 31.8 µM).

With `O=C(COC(=O)COc1cccc(F)c1)NCC1CCCCC1`, the kinetic solubility was more than 48.5 µg/mL.

Molecule `CC(C)CNC(=O)COC(=O)Cc1ccc(Cl)cc1` showed a kinetic solubility of 36.1 µg/mL (≈ 127 µM).

For `CCOC(=O)Cn1nc(C)n(-c2ccc(F)cc2)c1=O`, the kinetic solubility is more than 41.9 µg/mL.

Regarding `COc1cccc(/C=C/C(=O)OCC(=O)NCCc2ccccc2)c1`, the solubility (kinetic) was found to be 6.7 µg/mL (≈ 19.7 µM).

Turning to `COc1cccc2c3c(c(=O)[nH]c12)CC(C)(C)O3`, the kinetic solubility was more than 36.8 µg/mL.

Take `Cc1ccc(S(=O)(=O)N2CCCCC2C)cc1[N+](=O)[O-]` (stereo not drawn): the kinetic solubility amounted to 24.2 µg/mL (≈ 81.1 µM).

`COc1ccc(OCC#CCN2CCNCC2)cc1.O=C(O)C(=O)O` came in with a solubility (kinetic) of 52.4 µg/mL.

`O=C(CN1C(=O)c2ccccc2C1=O)Nc1nccs1` had a solubility (kinetic) of 17.4 µg/mL (≈ 60.6 µM).

As to `Cc1ccc(Cl)c(NC(=O)CN2CCNC(=O)C2)c1Cl`, the solubility (kinetic) was more than 47.4 µg/mL.

Consider `Cc1cc(O)c(N=Cc2cc3c(cc2[N+](=O)[O-])OCO3)cc1C`, for which the solubility (kinetic) stood at 7 µg/mL (≈ 22.3 µM).

`O=C(Cc1ccccc1)c1c[nH]c(C(=O)C(Cl)(Cl)Cl)c1`: the solubility (kinetic) is 28.1 µg/mL (≈ 85 µM).

As to `Cc1cc(Cl)ccc1OCCCC(=O)OCC(N)=O`, the solubility (kinetic) came to 42.3 µg/mL (≈ 148 µM).

With `O=C(Cn1ccnc1[N+](=O)[O-])NCc1ccccc1`, the solubility (kinetic) is more than 39 µg/mL.

With `CN1C(=O)NC(c2ccccc2[N+](=O)[O-])C2=C1CC(C)(C)CC2=O` (stereo not drawn), the solubility (kinetic) is 39.4 µg/mL (≈ 120 µM).

As for `COCC(=O)Nc1nc(-c2ccc([N+](=O)[O-])cc2)cs1`, the solubility (kinetic) is 7.3 µg/mL (≈ 24.9 µM).

As for `CC(NC(=O)c1cc(Br)ccc1Cl)c1ccccc1` (stereo not drawn), the kinetic solubility is 3.8 µg/mL (≈ 11.2 µM).

As to `CC(C)(C)c1ccccc1OCC(=O)NCCCn1ccnc1`, the kinetic solubility is more than 47.3 µg/mL.

Molecule `CC(Nc1cccc(C(=O)NC2CC2)c1)c1nnc(-c2ccccc2)o1` (stereo not drawn) had a solubility (kinetic) of more than 52.3 µg/mL.

Consider `CSc1ccc(CNC(=O)c2c(C)noc2C)s1`, for which the solubility (kinetic) stood at 39.8 µg/mL (≈ 141 µM).

As to `CCOC(=O)c1ccc(NC(=O)c2ccco2)cc1`, the solubility (kinetic) is more than 38.9 µg/mL.

On to `N#C/C(=C/Nc1ccccc1C(=O)O)C(N)=O`, for which the kinetic solubility was more than 34.7 µg/mL.

`Cc1cc(SCc2ccc(Cl)cc2Cl)nc(=O)[nH]1` had a kinetic solubility of 4.6 µg/mL (≈ 15.3 µM).

For `COc1ccc(CCC(C)NCc2ccccc2OC)cc1` (stereo not drawn), the kinetic solubility is 32 µg/mL (≈ 107 µM).

`CN(C)S(=O)(=O)Nc1ccccc1F`: the solubility (kinetic) is 30.2 µg/mL (≈ 138 µM).

`CC(Sc1nc(N)cc(=O)[nH]1)C(=O)N1CCOCC1` (stereo not drawn) gave a solubility (kinetic) of more than 42.6 µg/mL.

For the molecule `Cc1cc(Oc2ccc([N+](=O)[O-])cc2)nc(N2CCOCC2)n1`, the solubility (kinetic) worked out at 0.4 µg/mL (≈ 1.26 µM).

In turn, `COCCC(=O)Nc1ccc2c(c1)CN(C(=O)CSC)CC2` gave a solubility (kinetic) of more than 48.4 µg/mL.

In turn, `Cc1cc(C(=O)OCC(=O)Nc2c(Cl)cccc2Cl)c(C)o1` returned a solubility (kinetic) of 8.7 µg/mL (≈ 25.4 µM).

In turn, `O=C(CCCn1c(=O)[nH]c2ccccc2c1=O)Nc1ccc(F)cc1` gave a kinetic solubility of 7.7 µg/mL (≈ 22.6 µM).

For the molecule `Cc1ccc(C(=O)N/C(=C\c2ccco2)C(=O)N2CCOCC2)cc1C`, the kinetic solubility is more than 53.2 µg/mL.

In the case of `Cc1ccc(C(=O)O/N=C(\N)Cc2cccs2)c(Cl)c1`, the kinetic solubility amounted to 15.2 µg/mL (≈ 49.2 µM).

`Cc1ccc(OCC(=O)NCCCNC(=O)c2ccc(C)nc2)cc1` gave a kinetic solubility of more than 51.2 µg/mL.

`CC(C)(C)Nc1nc(Cl)nc(NCc2ccccc2)n1`: the solubility (kinetic) worked out at 8 µg/mL (≈ 27.4 µM).

`CC(C)NC(=O)COc1ccc(OCc2ccccc2)cc1`: the kinetic solubility was 9.5 µg/mL (≈ 31.7 µM).

In turn, `Cc1csc(NC(=O)c2ccncc2)n1` came in with a kinetic solubility of 17.9 µg/mL (≈ 81.6 µM).

`CS(=O)(=O)N(CC(=O)N1CCOCC1)c1ccc(Cl)cc1`: the solubility (kinetic) was more than 49.9 µg/mL.

As for `O=C1CCN(S(=O)(=O)c2ccc(Br)cc2)CCN1`, the solubility (kinetic) was 39.1 µg/mL (≈ 117 µM).

Take `CC(C(=O)Nc1ccc(S(=O)(=O)N2CCCC2)cc1)N1CCN(c2ccccc2O)CC1` (stereo not drawn): the kinetic solubility was 12.6 µg/mL (≈ 27.5 µM).

The molecule `COc1ccc(N2C(=O)CSC2c2ccccc2[N+](=O)[O-])cc1` (stereo not drawn) had a solubility (kinetic) of 47.7 µg/mL (≈ 144 µM).

`O=C(C#Cc1ccccc1)NCc1ccccc1F` yielded a solubility (kinetic) of 8.1 µg/mL (≈ 32 µM).

`CC(=O)c1sc(NC(C)c2ccccc2)nc1C` (stereo not drawn) returned a kinetic solubility of 30.4 µg/mL (≈ 117 µM).

Regarding `Cc1cc2c(OCC(O)CNCc3ccco3)cccc2[nH]1` (stereo not drawn), the kinetic solubility was 43.4 µg/mL (≈ 144 µM).

Take `CN(C)S(=O)(=O)c1ccc(C(=O)Nc2ccc3nc(N4CCOCC4)sc3c2)cc1`: the kinetic solubility was found to be 4.1 µg/mL (≈ 9.18 µM).

Molecule `Cc1nc2ccccc2n1Cc1ccccc1` yielded a kinetic solubility of 32.9 µg/mL (≈ 148 µM).

In turn, `O=C(Nc1sc2c(c1C(=O)NCCCO)CCCC2)c1ccccc1` came in with a solubility (kinetic) of 1.6 µg/mL (≈ 4.46 µM).

With `COc1ccc(CN(CCC(c2ccco2)C(C)C)C(C)=O)cc1OC` (stereo not drawn), the kinetic solubility was 49.2 µg/mL (≈ 137 µM).

The molecule `COc1ccc(C(=O)Nc2ccc(NC(=O)C3CCCCC3)nc2)cc1` returned a kinetic solubility of 0.4 µg/mL (≈ 1.13 µM).
